Test results taken from patent publication US20050245537A1, “Use of compounds having ccr antagonism” (priority 2002, published 2005).

Tested on: Mouse Skin Graft Rejection Model
Assay: Mouse skin graft rejection model
Format: in vivo
Excerpt: Effects of a Compound with Respect to a Mouse Skin Graft Rejection Model

SMILES: Cc1ccc(-c2ccc3c(c2)C=C(C(=O)Nc2ccc(C[N+](C)(C)C4CCOCC4)cc2)CCC3)cc1.[Cl-] [N,N-dimethyl-N-(4-[[[2-(4-methylphenyl)-6,7-dihydro-5H-benzocyclohepten-8-yl]carbonyl]amino]benzyl]tetrahydro-2H-pyran-4-ammonium chloride]
- graft rejection suppression effect (10 mg/kg subdermally once a day, P<0.05 vs. control, log-rank test): significant
- number of days of skin graft life (donor mouse B6-CH-2^bm12 abdominal skin grafted onto recipient mouse (B6/129), 10 mg/kg subdermally once a day from the day of grafting, n=7, control group 13.0±2.8 days (n=6)): 19.6 ± 4.4 days
